Assays:
pERK in H358 cells = assay: pERK inhibition in H358 cells; format: cell-based, human; conditions: 4 hours treatment, read-out: Cellular pERK inhibition
Method: H358 cells (5500 cells) derived from a human lung cancer were plated in a 96 well plate in media (100 uL, RPMI with 10% FBS). After 24 hours, cells were treated for 4 hours with compound or DMSO. Cells were washed twice with room temperature TBS (200 uL) and fixed for 20 minutes with 4% paraformaldehyde diluted with TBS (150 uL). Cells were washed four times for five minutes with 0.1% TritonX/TBS (150 uL) to permeabilize the membrane. Cells were incubated with TBS blocking buffer (100 uL) at room temperature for 60 minutes. Primary antibody (Phospho-p44/42 MAPK (Erk1/2) (Thr202/Tyr204) (D13.14.4E) XP® Rabbit mAb #4370, Cell Signaling Technology; 1:200) was added, and the cells were incubated overnight at 4 C. The cells were washed four times for five minutes with 0.1% Tween 20/TBS (150 uL). Secondary antibody (IRDye® 800CW Goat-Anti-Rabbit IgG, Li-Cor Biosciences; 1:1000) and DRAQ5™ (Invitrogen; 1:2000) was added, and the cells were incubated for 1 hour at room temperature. The cells were washed four times for five minutes with 0.1% Tween 20/TBS (150 uL) and scanned using the LICOR (700 and 800 nm).

[1] = target: T1, BRAF-GTP-KRAS-G12C complex (Homo sapiens, UniProt P01116+P62937, G12C); assay: KRAS-BRAF complex disruption through competition with CYPA-compound by TR-FRET; conditions: biochemical BRAF-KRAS G12C-GTP disruption assay EC50, with CYPA
T1 construct: 50 nM of His6-KRas G12C-GTP (1-169); 500 nM of tagless CypA (1-165)
Method: In this example, TR-FRET was used to measure the compound-facilitated disruption of a KRAS-BRAF complex. A mixture of tagless Cyclophilin A, His6-KRAS G12C-GMP-PNP, and GST-BRAF RAS binding domain was added to a 384-well assay plate containing compounds of the invention and incubated for 3 hours. A mixture of Anti-His Eu-W1024 and anti-GST allophycocyanin was then added and the reaction was incubated for an additional 1.5 hours. TR-FRET signal was read on an EnVision microplate reader (Perkin Elmer, Ex 320 nm, Em 665/615 nm). Compounds that facilitate disruption of a KRAS_BRAF complex were identified as those eliciting a decrease in the TR-FRET ratio relative to DMSO control wells. To determine the presenter-dependence of the compound-mediated KRAS-BRAF complex disruption, Cyclophilin A was left out of the initial incubation (see Table 5). To determine G12C specificity of the compound-mediated KRAS-BRAF complex disruption, wild-type KRAS was used instead of G12C KRAS (see Table 5).
Reagents and Instrument • Tagless CYPA; 519 μM in PBS buffer, pH 7.4 • GST BRAF; 110 μM in PBS buffer, pH 7.4 • His6-KRASG12C-GMP-PNP; 50 μM in PBS buffer, pH 7.4 • His6-KRASWT-GMP-PNP; 40 μM in PBS buffer, pH 7.4 • Anti-His Eu-W1024 (LANCE® Eu-W1024; Perkin Elmer) • Anti-GST allophycocyanin (Anti-GST IgG conjugated to SureLight®-Allophycocyanin; Perkin Elmer; Product Number AD0059G) • Test compounds, 10 mM in 100% DMSO • EnVision (Perkin Elmer) • Combi MultiDrop liquid dispenser with 8-channel small volume cassette • 384-well ProxiPlate (black)
Experimental Protocol • 1. Use Mosquito to dispense 100 nL/well of compounds (varying concentration in […]) into 384-well black ProxiPlate to make assay-ready-plate (ARP). • 2. Make assay buffer containing 25 mM Hepes pH 7.3, 100 mM NaCl, 5 mM MgCl2, 0.05% BSA, and 0.002% Tween-20. • 3. Make PRE-MIX A: delivers final concentrations of 50 nM of His6-KRas G12C-GTP (1-169) and 500 nM of tagless CypA (1-165) in assay buffer. • a. For presenter dependence experiments, omit addition of tagless CypA • b. For G12C/wt specificity experiments, substitute His6-KRas WT-GTP (1-169) for His6-KRas G12C-GTP (1-169) • 4. Use MultiDrop Combi to dispense PRE-MIX A into ARP, 7 μl/well. Incubate 3 hr at room temperature. • 5. Make PRE-MIX B: delivers final concentrations of 10 nM of anti-His Eu-W1024 and 50 nM of anti-GST APC. • 6. Use MultiDrop Combi to dispense PRE-MIX B into ARP, 3 μl/well. Shake briefly on Combi and incubate 1.5 hr at room temperature. • 7. Read on EnVision (Ex: 320 nm; Em1: 615 nm; Em2: 665 nm). • 8. Data is processed using Dotmatics. Curves are fit using a 4-parameter non-linear fit to determine the EC50 value for formation of the ternary complex.

cyclophilin A (CYPA) = cyclophilin A (CYPA) (Homo sapiens, UniProt P62937); assay: CYPA-compound binary complex formation by SPR; conditions: read-out: CYPA Binding Affinity
Method: In order to determine the affinity of compounds of the invention for cyclophilin A (CYPA), we employed surface plasmon resonance binding analysis using the following reagents, instruments and protocol as supplied by the instrument manufacturer.
Reagents and Instrument • 1. Instrument: Biacore S200 (GE Healthcare Life Sciences) • 2. Running buffer: 1×HBS-P+ (1×HBS supplemented with 0.05% Tween20), pH7.4, and 2% DMSO. • 3. Ligand: CypA-Avi • 4. Analyte: Serial dilution of WDB compounds from 50 μM to 0 μM, 2-fold dilution, 10 points (10 mM stock concentration). • 5. Sensor kit: Biotin CAPture Kit (BR28-9202-34, GE Healthcare Life Sciences) • 6. Regeneration buffer: 1 volume of 1 M NaOH and 3 volumes of 8 M guanidine hydrochloride (supplied with CAPture Kit, BR28-9202-34, GE Healthcare Life Sciences)
Experimental Procedure • 1. Capture of CAPreagent: 2 μl/min for 60 seconds. • 2. Immobilization of ligand CypA: Use Fc1 as the reference cell; immobilize CypA at 4 μg/ml using 5 μl/min flowrate on Fc2 (60s), Fc3 (80s) and Fc4 (80s), respectively. • 3. Binding of analytes: Inject WDB compound dilutions sequentially at 50 μl/min for association of 60 seconds. And then let it dissociates in buffer at 50 μl/min for 60 seconds. • 4. Regeneration: 2 injections of regeneration buffer at 30 μl/min for 60 seconds to regenerate the chip surface. • 5. Solvent correction: Run solvent correction at beginning and the end of the run. If run more than 6 compounds, add additional solvent correction every 6 compounds. • 6. Data fitting with built-in Biacore Evaluation Software: Steady-state fitting.

Compound | IC50 (pERK in H358 cells) [µM] | EC50 [1] [µM] | Kd (cyclophilin A (CYPA)) [µM]
C=CC(=O)N1CCC(C(=O)N(C)C(C(=O)NC2Cc3cc(O)cc(c3)-c3ccc4c(-c5c(COC)noc5C)cn(c4c3)CC(C)(C)COC(=O)C3CCCN(N3)C2=O)C(C)C)C1 (stereo not drawn) [Compound 394] | > 10 | 0.5 to 5 | 5 to 15
CC(C)[C@@H](C(=O)N[C@H]1Cc2cc(O)cc(c2)-c2ccc3c(C(C)(C)C#N)cn(c3c2)C[C@H](C)COC(=O)[C@@H]2CCCN(N2)C1=O)N1CC[C@@H](NC(=O)CCl)C1=O [Compound 28] | > 10 | 0.5 to 5 | ≤ 5
CC(C)[C@@H](C(=O)N[C@H]1Cc2cc(O)cc(c2)-c2ccc3c(C(C)(C)C#N)cn(c3c2)CC(C(F)F)COC(=O)[C@@H]2CCCN(N2)C1=O)N(C)C(=O)C1CN(C(=O)CCl)C1 (single isomer, unassigned) [Compound 37] | 1 to 10 | ≤ 0.5 | 5 to 15
COc1ccccc1-c1cn2c3cc(ccc13)-c1cc(O)cc(c1)CC(NC(=O)C(C(C)C)N(C)C(=O)C1CN(C(=O)CCl)C1)C(=O)N1CCCC(N1)C(=O)OCC(C)C2 (stereo not drawn) [Compound 48] | 1 to 10 | ≤ 0.5 | 5 to 15
CC(C)[C@@H](C(=O)N[C@H]1Cc2cc(O)cc(c2)-c2ccc3c(Cc4ccccn4)cn(c3c2)C[C@H](C)COC(=O)[C@@H]2CCCN(N2)C1=O)N(C)C(=O)C1CN(C(=O)CCl)C1 [Compound 69] | 1 to 10 | ≤ 0.5 | ≤ 5
CC1COC(=O)C2CCCN(N2)C(=O)C(NC(=O)C(C(C)C)N(C)C(=O)C2CN(C(=O)C(C)Cl)C2)Cc2cc(O)cc(c2)-c2ccc3c(C(C)(C)C#N)cn(c3c2)C1 (stereo not drawn) [Compound 18] | > 10 | 0.5 to 5 | > 15
CC(C)[C@@H](C(=O)N[C@H]1Cc2cc(O)cc(c2)-c2ccc3c(-c4ccn(C)n4)cn(c3c2)CC(C)(C)COC(=O)[C@@H]2CCCN(N2)C1=O)N(C)C(=O)C1CN(C(=O)CCl)C1 [Compound 257] | 1 to 10 | ≤ 0.5 | 5 to 15
CC(C)[C@@H](C(=O)N[C@H]1Cc2cc(O)cc(c2)-c2ccc3c(c2)N(CC(C)(C)COC(=O)[C@@H]2CCCN(N2)C1=O)C(=O)C3)N(C)C(=O)C1CN(C(=O)CCl)C1 [Compound 177] | 1 to 10 | ≤ 0.5 | 5 to 15
CC(C)[C@@H](C(=O)N[C@H]1Cc2cc(O)cc(n2)-c2ccc3c(C(C)(C)C#N)cn(c3c2)C[C@H](C)CNC(=O)[C@@H]2CCCN(N2)C1=O)N(C)C(=O)C1CN(C(=O)CCl)C1 [Compound 60] | > 10 | > 5 | 5 to 15
CC(C)[C@@H](C(=O)N[C@H]1Cc2cc(O)cc(c2)-c2ccc3c(-c4ccccc4Cl)cn(c3c2)CC(C)(C)COC(=O)[C@@H]2CCCN(N2)C1=O)N(C)C(=O)C1CN(C(=O)CCl)C1 [Compound 241] | 1 to 10 | ≤ 0.5 | > 15
CC(C)C(C(=O)NC1Cc2cc(O)cc(c2)-c2ccc3c(C(C)(C)C#N)cn(c3c2)CC(F)COC(=O)C2CCCN(N2)C1=O)N(C)C(=O)C1CN(C(=O)CCl)C1 (single isomer, unassigned) [Compound 25] | > 10 | ≤ 0.5 | 5 to 15
C=CC(=O)N1CCN([C@H](C(=O)N[C@H]2Cc3cc(O)cc(c3)-c3ccc4cnn(c4c3)CC(C)(C)COC(=O)[C@@H]3CCCN(N3)C2=O)C(C)C)C1=O [Compound 199] | > 10 | 0.5 to 5 | 5 to 15
CCc1c(-c2ccccc2OC)n2c3cc(ccc13)-c1cc(O)cc(c1)C[C@H](NC(=O)[C@H](C(C)C)N(C)C(=O)C1CN(C(=O)CCl)C1)C(=O)N1CCC[C@H](N1)C(=O)OC[C@@H](C)C2 [Compound 86] | ≤ 1 | ≤ 0.5 | > 15
CC(C)[C@@H](C(=O)N[C@H]1Cc2cc(O)cc(c2)-c2ccc3c(-c4ccccc4F)cn(c3c2)CC(C)(C)COC(=O)[C@@H]2CCCN(N2)C1=O)N(C)C(=O)C1CN(C(=O)CCl)C1 [Compound 242] | 1 to 10 | ≤ 0.5 | > 15
COc1ccc(-c2cn3c4cc(ccc24)-c2cc(O)cc(c2)C[C@H](NC(=O)[C@H](C(C)C)N(C)C(=O)C2CN(C(=O)CCl)C2)C(=O)N2CCC[C@H](N2)C(=O)OC[C@@H](C)C3)cc1 [Compound 50] | 1 to 10 | ≤ 0.5 | 5 to 15
CCN(C(=O)C1CN(C(=O)CCl)C1)[C@H](C(=O)N[C@H]1Cc2cc(O)cc(c2)-c2ccc3c(C(C)(C)C#N)cn(c3c2)CC(C)(C)COC(=O)[C@@H]2CCCN(N2)C1=O)C(C)C [Compound 65] | 1 to 10 | ≤ 0.5 | > 15
CC(C)[C@@H](C(=O)N[C@H]1Cc2cc(O)cc(c2)-c2ccc3c(c2)n(c(=O)n3C)CC(C)(C)COC(=O)[C@@H]2CCCN(N2)C1=O)N(C)C(=O)C1CN(C(=O)CCl)C1 [Compound 189] | ≤ 1 | ≤ 0.5 | ≤ 5

— patent US20240139185A1, “COMPOUNDS THAT PARTICIPATE IN COOPERATIVE BINDING AND USES THEREOF” (Revolution Medicines, Inc., priority 2018, published 2024)
